Measured values as given in ChEMBL document CHEMBL6092150, “Exploration of isatin-based inhibitors of SARS-CoV-2 Nsp15 endoribonuclease” (Eur J Med Chem, 2024).
Calls of active or inactive are those of the source. No cut-off for these calls is given here.

Assays:
[1] = target: Replicase polyprotein 1ab (Severe acute respiratory syndrome coronavirus 2) (UniProt P0DTD1); test: Inhibition of SARS-CoV-2 recombinant GST-tagged nsp15 endonuclease activity using 5'-6-FAM-AArUAA-lowa Black FQ-3' as substrate assessed as cleavage of substrate at 100 uM measured every 2 min for 1 hrs by FRET-based Nsp15 EndoU assay relative to control
[2] = Cytotoxicity against human A549 cells by MTS cell viability analysis; type: toxicity, cell-based
[3] = target: Replicase polyprotein 1ab (Severe acute respiratory syndrome coronavirus 2) (UniProt P0DTD1); test: (§1) Inhibition of SARS-CoV-2 recombinant GST-tagged nsp15 endonuclease activity using 5'-6-FAM-AArUAA-lowa Black FQ-3' as substrate assessed as cleavage of substrate measured every 2 min for 1 hrs by FRET-based Nsp15 EndoU assay
[4] = target: Replicase polyprotein 1ab (Severe acute respiratory syndrome coronavirus 2, UniProt P0DTD1); test: as §1
Vero C1008 = test: Cytotoxicity against african green monkey Vero E6 cells at 100 uM incubated for 72 hrs by MTT cell viability assay; type: toxicity, cell-based; settings: chlorocebus sabaeus, vero c1008, 72 h
MRC5 = test: Cytotoxicity against human MRC5 cells at 100 uM incubated for 72 hrs by MTT cell viability assay; type: toxicity, cell-based; settings: mrc5, 72 h
[5] = target: Replicase polyprotein 1ab (Severe acute respiratory syndrome coronavirus 2) (UniProt P0DTD1); test: Effect on SARS-CoV-2 recombinant Nsp15 oligomerization state at 0.1 to 1 mM by Commassie-Native gel electrophoresis; settings: dose 0.1-1 mM

Row | SMILES | inhibition [1] | CC50 [2] | inhibition [3] | IC50 [4] | Activity (Vero C1008) | Activity (MRC5) | Activity [5]
1 | O=C1Nc2ccc(Br)cc2C1=O | 32.7% | – | – | – | – | – | –
2 | N#CC(C#N)=C1C(=O)Nc2ccc([N+](=O)[O-])cc21 | 61.5% | 189 µM | Dose-dependent-effect | 43.5 µM | Non-toxic | Non-toxic | inactive
3 | N#CC(C#N)=C1C(=O)Nc2ccc(F)cc21 | 30.2% | – | Dose-dependent-effect | 236 µM | – | – | –
4 | N#C[C@@]1(c2ccc3c(N)ncnn23)O[C@H](CO)[C@@H](O)[C@H]1O [GS-441524] | – | > 40 µM | – | – | – | – | –
5 | O=C1Nc2c(Br)cc(Br)cc2C1=O | 58.4% | – | – | – | – | – | –
6 | O=C1Nc2ccc(F)cc2C1=O | 13.6% | – | – | – | – | – | –
7 | N#CC(C#N)=C1C(=O)Nc2ccc(Br)cc21 | 55.9% | – | Dose-dependent-effect | 82.9 µM | – | – | –
8 | N#CC(C#N)=C1C(=O)Nc2ccc(I)cc21 | 32.6% | – | Dose-dependent-effect | 151 µM | – | – | –
9 | O=C1Nc2ccc([N+](=O)[O-])cc2C1=O [5-NITROISATIN] | 40.7% | – | – | – | Non-toxic | Non-toxic | –
10 | N#CC(C#N)=C1C(=O)Nc2c(Br)cc(Br)cc21 | 68.1% | 134 µM | Dose-dependent-effect | 53.5 µM | Non-toxic | Non-toxic | inactive
11 | O=C1Nc2ccc(I)cc2C1=O | 26.2% | – | – | – | – | – | –
